# Results reported in article doi:10.1101/641969v1 (biorxiv, 2019).
# What was measured:
# PaCntM [1] = target: T1, PaCntM (Pseudomonas aeruginosa, UniProt Q9HUX5); experiment: NADH oxidation at […] nm, initial rates, Michaelis-Menten fit; conditions: 0.2 mM NADH, 1 mM α-ketoglutarate, pH 8, 28 °C
# T1 sequence (Q9HUX5 1-433): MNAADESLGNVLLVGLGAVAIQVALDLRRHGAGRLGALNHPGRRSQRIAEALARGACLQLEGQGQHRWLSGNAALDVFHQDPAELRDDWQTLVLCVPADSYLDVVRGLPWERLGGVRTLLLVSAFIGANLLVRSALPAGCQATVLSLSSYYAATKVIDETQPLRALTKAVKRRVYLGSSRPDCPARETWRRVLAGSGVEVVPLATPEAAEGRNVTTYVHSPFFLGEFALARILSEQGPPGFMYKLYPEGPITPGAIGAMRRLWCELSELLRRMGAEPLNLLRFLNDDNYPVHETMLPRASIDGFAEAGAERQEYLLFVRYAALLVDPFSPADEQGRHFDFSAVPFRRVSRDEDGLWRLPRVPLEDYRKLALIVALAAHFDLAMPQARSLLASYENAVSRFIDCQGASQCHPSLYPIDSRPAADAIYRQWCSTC
# SaCntM [2] = target: T2, SaCntM (Staphylococcus aureus, UniProt A0A0H3JT80); experiment: NADPH oxidation at […] nm, initial rates, Michaelis-Menten fit; format: biochemical; conditions: 0.2 mM NADPH, 1 mM pyruvate, pH 7, 28 °C
# T2 sequence (A0A0H3JT80 1-433): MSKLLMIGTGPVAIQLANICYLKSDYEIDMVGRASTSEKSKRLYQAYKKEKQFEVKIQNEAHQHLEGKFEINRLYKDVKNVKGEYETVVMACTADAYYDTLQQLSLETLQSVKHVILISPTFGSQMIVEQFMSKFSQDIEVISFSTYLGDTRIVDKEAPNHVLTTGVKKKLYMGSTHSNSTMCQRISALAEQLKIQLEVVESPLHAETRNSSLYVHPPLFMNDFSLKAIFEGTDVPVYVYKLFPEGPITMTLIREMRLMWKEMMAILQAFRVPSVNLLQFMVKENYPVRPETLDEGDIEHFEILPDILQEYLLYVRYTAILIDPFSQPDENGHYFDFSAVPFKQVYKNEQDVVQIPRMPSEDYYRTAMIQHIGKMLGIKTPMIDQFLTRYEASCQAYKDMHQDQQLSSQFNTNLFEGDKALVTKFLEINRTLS
# PmCntM = target: T3, PmCntM (Paenibacillus mucilaginosus, UniProt H6NF63); experiment: NADPH oxidation at […] nm, initial rates; format: biochemical
# T3 sequence (H6NF63 1-440): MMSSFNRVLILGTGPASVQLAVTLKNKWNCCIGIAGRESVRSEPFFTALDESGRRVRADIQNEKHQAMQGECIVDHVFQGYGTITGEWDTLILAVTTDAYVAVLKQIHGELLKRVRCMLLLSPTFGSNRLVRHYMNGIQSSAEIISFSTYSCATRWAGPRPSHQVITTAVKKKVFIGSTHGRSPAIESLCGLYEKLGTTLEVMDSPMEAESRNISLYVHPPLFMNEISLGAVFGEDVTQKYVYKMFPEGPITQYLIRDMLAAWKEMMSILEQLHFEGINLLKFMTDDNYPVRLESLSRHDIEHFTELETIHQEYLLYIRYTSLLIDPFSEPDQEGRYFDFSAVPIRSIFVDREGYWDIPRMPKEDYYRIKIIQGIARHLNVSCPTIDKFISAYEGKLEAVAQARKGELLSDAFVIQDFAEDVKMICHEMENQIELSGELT
# PmCntL = target: T4, PmCntL (Paenibacillus mucilaginosus, UniProt H6NF62); experiment: TLC of products from carboxyl-[…]-labeled SAM; format: biochemical; conditions: 10 µM D-histidine, 2.5 µM [14C]SAM, pH 9, 28 °C, 30 min
# T4 sequence (H6NF62 1-276): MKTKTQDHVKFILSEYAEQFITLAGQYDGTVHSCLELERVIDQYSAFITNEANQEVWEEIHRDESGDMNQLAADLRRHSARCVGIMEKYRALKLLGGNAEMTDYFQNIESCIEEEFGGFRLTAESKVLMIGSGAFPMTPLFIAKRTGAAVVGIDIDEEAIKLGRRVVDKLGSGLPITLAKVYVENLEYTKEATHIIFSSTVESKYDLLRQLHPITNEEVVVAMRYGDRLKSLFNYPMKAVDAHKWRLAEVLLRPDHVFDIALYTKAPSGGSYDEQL
# SaCntM [3] = target: T2, SaCntM; experiment: NADPH oxidation at […] nm, initial rates, substrate inhibition model; format: biochemical; conditions: 0.2 mM NADPH, 1 mM pyruvate, pH 7, 28 °C
# PaCntM [4] = target: T1, PaCntM; experiment: NADH oxidation at […] nm, initial rates, substrate inhibition model; format: biochemical; conditions: 0.2 mM NADH, 1 mM α-ketoglutarate, pH 8, 28 °C
# SaCntM [5] = target: T2, SaCntM; experiment: NADPH oxidation at […] nm, initial rates, substrate inhibition model; format: biochemical; conditions: 0.2 mM NADPH, 1 mM pyruvate, pH 7, 28 °C; remark: listed apart in the source
# PaCntM [6] = target: T1, PaCntM; experiment: NADH oxidation at […] nm, initial rates, substrate inhibition model; format: biochemical; conditions: 0.2 mM NADH, 1 mM α-ketoglutarate, pH 8, 28 °C; remark: listed apart in the source
Structure (SMILES),Km (PaCntM [1]) [µM],Km (SaCntM [2]) [µM],Km (PmCntM) [µM],TLC of products from carboxyl-[14C]-labeled SAM (PmCntL),Km (SaCntM [3]) [µM],Km (PaCntM [4]) [µM],Ki (SaCntM [5]) [µM],Ki (PaCntM [6]) [µM]
N[C@@H](CCN[C@H](Cc1c[nH]cn1)C(=O)O)C(=O)O [xNA],54 ± 20,23 ± 3,12 ± 1,,,,,
N[C@H](Cc1c[nH]cn1)C(=O)O [D-histidine],,,,PmCntL uses D-His and not L-His,,,,
N[C@@H](CCN[C@@H](Cc1c[nH]cn1)C(=O)O)C(=O)O [yNA],,,7 ± 1,,47 ± 9,21 ± 7,2300 ± 800,2400 ± 1000
